Publication PMC3968014, “Design and Synthesis of a Library of Lead-Like 2,4-Bisheterocyclic Substituted Thiophenes as Selective Dyrk/Clk Inhibitors” (PLoS ONE, 2014)
Several values for one entry are separate records, joined by “and”; a condition that tells them apart may be missing. Identical values can stand only once. Like-named read-outs stand apart in the source and are kept apart here.

Key:
Dyrk2 = molecular target: T1, Dyrk2 (Homo sapiens, UniProt Q92630); test: Dyrk2 kinase assay (32P-ATP, Woodtide); type: biochemical; conditions: for IC50: 100 µM ATP, read-out: IC50 Dyrk2; for inhibition at 5 µM: read-out: percentage of inhibition Dyrk2
T1 construct: made in house; host or cells: Escherichia coli BL21(DE3) with pRARE; plasmid pGEX-2TK-Dyrk2 (gift from W. Becker, Aachen)
T1 sequence (Q92630 1-601): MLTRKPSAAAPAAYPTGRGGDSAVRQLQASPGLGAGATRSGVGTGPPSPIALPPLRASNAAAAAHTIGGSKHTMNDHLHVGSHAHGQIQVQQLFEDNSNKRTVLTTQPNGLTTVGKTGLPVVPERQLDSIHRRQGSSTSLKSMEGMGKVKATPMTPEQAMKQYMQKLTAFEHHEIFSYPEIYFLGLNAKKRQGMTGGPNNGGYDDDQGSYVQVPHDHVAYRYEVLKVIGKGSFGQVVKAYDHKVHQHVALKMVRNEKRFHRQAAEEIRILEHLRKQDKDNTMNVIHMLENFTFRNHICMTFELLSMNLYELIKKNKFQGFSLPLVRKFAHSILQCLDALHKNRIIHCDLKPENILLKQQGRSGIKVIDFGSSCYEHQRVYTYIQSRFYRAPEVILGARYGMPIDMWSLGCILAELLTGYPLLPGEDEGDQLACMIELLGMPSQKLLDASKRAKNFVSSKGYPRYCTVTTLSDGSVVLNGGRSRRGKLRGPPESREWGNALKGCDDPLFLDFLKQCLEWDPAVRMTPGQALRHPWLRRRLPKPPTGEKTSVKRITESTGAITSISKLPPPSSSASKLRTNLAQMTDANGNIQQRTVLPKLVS

CK2α = molecular target: T2, CK2α (Homo sapiens, UniProt P68400); test: CK2α kinase assay (counter screen); type: biochemical; conditions: for inhibition at 5 µM: read-out: percentage of inhibition CK2α
T2 construct: purchased Life Technologies (Invitrogen SelectScreen); Dyrk1A, Dyrk2 and CK2α in-house or gifts
T2 sequence (P68400 whole entry): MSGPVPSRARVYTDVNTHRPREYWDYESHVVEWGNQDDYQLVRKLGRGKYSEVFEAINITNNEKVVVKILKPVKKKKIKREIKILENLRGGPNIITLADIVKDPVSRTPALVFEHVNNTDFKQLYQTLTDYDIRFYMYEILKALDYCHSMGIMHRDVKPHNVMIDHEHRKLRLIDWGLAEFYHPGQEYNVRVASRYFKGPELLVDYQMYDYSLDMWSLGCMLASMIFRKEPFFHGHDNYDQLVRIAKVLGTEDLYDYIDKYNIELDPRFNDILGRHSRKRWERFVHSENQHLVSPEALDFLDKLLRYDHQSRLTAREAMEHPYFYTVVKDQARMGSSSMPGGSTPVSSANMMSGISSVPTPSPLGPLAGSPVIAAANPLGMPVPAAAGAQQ
Method: Dyrk1A, Dyrk1B, Dyrk2, CK2α and Clk1 kinase reactions were performed in a reaction buffer containing 50 mM Tris/HCl, pH 7.4, 0.1 mM EGTA, 0.5 mM DTT, 10 mM MgCl2, 100 µM ATP and 0.33 µM [γ-^32ATP] as well as the appropriate substrate peptides, which were 100 µM Woodtide for the Dyrk isoforms ([…]-NH2), 60 µM CK2 substrate peptide ([…]-NH2, from Millipore) for CK2α or RS repeat peptide ([…]) for Clk1. The CK2α protein was a kind gift of M. Montenarh (Homburg). The kinase reactions were performed at 30°C for 15 min and terminated by spotting 5 µL of the reaction mixture onto a P81 phosphocellulose membrane (Whatman). The membrane was washed four times with 0.3% phosphoric acid and one time with acetone and dried. The dry membrane was exposed in a cassette to a Phosphor Screen Imaging Plate (FujiFilm) and the signals detected by scanning of the imaging plate in a Fuji FLA-3000 PhosphoImager. The spots were quantified using AIDA software (Raytest, Version 3.52) to determine the activities of the kinases in the assay reactions. […] IC50 values were calculated by fitting the data with Origin Pro 8.6 (OriginLabs). The calculated IC50 values are representative of at least two independent determinations.

Clk1 = Clk1 (Homo sapiens, UniProt P49759); test: Clk1 kinase assay (RS repeat peptide); type: biochemical; conditions: for inhibition at 5 µM: read-out: % inhibition Clk1; for IC50: 100 µM ATP
Chain of Clk1 (P49759 whole entry): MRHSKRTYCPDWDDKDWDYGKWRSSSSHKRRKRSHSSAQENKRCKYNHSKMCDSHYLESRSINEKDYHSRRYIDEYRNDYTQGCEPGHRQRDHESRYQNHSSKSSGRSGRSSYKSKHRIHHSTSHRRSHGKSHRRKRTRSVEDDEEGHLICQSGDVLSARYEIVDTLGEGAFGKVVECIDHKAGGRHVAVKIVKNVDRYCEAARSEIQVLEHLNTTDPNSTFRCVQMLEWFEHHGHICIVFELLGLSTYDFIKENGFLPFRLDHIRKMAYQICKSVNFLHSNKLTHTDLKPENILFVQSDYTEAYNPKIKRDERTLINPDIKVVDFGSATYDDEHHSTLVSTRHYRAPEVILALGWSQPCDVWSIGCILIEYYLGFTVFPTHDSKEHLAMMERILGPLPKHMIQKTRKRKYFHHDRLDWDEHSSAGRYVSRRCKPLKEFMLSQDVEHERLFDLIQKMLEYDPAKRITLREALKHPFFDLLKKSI

Clk3 = molecular target: T3, Clk3 (Homo sapiens, UniProt P49761); test: Selectivity panel Clk3; type: biochemical; conditions: 5 µM inhibitor
T3 construct: purchased Life Technologies (Invitrogen SelectScreen); Dyrk1A, Dyrk2 and CK2α in-house or gifts
T3 sequence (P49761 whole entry): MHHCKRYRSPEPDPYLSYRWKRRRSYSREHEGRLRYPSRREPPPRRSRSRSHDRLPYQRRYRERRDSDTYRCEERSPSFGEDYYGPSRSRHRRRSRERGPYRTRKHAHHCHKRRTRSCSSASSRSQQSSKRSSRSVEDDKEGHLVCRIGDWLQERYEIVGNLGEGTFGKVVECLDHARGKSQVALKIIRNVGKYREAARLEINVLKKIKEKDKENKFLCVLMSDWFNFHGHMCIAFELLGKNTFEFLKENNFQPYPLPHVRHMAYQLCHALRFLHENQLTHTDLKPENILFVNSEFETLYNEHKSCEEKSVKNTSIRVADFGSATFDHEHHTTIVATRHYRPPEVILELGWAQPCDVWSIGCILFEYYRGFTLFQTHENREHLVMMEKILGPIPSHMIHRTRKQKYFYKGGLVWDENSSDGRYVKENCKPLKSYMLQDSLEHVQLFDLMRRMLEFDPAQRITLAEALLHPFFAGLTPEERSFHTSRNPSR

PIM1 = PIM1 (Homo sapiens, UniProt P11309); test: Selectivity panel PIM1; type: biochemical; conditions: for inhibition at 5 µM: 5 µM inhibitor
Chain of PIM1 (P11309 whole entry): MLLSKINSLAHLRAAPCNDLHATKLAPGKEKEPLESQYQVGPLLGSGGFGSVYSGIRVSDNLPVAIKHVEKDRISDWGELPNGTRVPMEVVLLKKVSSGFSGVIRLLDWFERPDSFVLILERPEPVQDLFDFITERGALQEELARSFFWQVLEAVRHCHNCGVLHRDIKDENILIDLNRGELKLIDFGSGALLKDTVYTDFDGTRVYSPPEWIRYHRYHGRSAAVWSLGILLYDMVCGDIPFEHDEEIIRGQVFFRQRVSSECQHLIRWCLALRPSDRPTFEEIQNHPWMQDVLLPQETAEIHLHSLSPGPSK

CaMK1 = molecular target: T4, CaMK1 (Homo sapiens, UniProt Q14012); test: Selectivity panel CaMK1; type: biochemical; conditions: 5 µM inhibitor
T4 construct: purchased Life Technologies (Invitrogen SelectScreen); Dyrk1A, Dyrk2 and CK2α in-house or gifts
T4 sequence (Q14012 whole entry): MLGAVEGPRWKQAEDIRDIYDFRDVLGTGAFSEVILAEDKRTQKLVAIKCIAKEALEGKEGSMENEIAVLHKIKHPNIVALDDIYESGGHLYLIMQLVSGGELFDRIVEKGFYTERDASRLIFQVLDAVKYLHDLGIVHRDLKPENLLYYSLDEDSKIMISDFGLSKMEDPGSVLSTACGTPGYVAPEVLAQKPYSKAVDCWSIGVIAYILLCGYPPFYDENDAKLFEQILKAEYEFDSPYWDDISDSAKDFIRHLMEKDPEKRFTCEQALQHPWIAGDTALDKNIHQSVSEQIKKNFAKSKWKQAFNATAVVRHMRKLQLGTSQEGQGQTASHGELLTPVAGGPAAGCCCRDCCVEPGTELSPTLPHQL

PRKD2 (PKD2) = molecular target: T5, PRKD2 (PKD2) (Homo sapiens, UniProt Q9BZL6); test: Selectivity panel PRKD2; type: biochemical; conditions: 5 µM inhibitor
T5 construct: purchased Life Technologies (Invitrogen SelectScreen); Dyrk1A, Dyrk2 and CK2α in-house or gifts
T5 sequence (Q9BZL6 1-878): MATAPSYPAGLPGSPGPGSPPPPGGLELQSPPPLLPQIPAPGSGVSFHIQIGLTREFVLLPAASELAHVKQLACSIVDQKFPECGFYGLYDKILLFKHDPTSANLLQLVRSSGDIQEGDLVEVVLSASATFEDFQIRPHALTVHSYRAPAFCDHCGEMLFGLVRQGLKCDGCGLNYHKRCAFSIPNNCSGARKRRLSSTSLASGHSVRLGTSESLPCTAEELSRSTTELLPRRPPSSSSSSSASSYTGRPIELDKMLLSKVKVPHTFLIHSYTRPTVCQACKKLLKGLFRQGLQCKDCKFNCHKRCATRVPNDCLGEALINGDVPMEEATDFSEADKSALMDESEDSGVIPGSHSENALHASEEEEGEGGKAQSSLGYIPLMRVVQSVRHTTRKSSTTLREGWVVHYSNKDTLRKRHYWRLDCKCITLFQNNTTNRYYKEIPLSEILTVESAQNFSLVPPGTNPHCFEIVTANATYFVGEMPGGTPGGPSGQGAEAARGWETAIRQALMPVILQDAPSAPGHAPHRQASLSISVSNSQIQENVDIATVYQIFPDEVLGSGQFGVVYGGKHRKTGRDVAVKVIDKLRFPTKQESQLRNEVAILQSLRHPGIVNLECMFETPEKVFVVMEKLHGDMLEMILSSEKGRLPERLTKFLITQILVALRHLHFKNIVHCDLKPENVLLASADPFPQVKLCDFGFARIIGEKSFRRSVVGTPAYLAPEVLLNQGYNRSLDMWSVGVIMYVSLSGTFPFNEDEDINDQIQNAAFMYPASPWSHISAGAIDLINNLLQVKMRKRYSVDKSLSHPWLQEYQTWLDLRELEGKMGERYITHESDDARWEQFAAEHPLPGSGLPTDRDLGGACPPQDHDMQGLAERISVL

Ck1δ = molecular target: T6, Ck1δ (Homo sapiens, UniProt P48730); test: Selectivity panel Ck1δ; type: biochemical; conditions: 5 µM inhibitor
T6 construct: purchased Life Technologies (Invitrogen SelectScreen); Dyrk1A, Dyrk2 and CK2α in-house or gifts
T6 sequence (P48730 whole entry): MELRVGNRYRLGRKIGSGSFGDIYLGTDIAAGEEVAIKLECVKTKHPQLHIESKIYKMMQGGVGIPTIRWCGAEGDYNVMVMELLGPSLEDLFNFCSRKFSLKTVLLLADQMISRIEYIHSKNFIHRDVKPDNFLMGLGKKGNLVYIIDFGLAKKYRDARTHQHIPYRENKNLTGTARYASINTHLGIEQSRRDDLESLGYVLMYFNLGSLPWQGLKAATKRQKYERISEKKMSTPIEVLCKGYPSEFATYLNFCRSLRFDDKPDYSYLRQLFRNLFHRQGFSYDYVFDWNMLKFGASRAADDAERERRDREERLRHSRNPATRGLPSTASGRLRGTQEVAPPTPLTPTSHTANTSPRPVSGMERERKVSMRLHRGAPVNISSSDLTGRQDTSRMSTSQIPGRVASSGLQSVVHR

EGFR = molecular target: T7, EGFR (Homo sapiens, UniProt P00533); test: Selectivity panel EGFR; type: biochemical; conditions: 5 µM inhibitor
T7 construct: purchased Life Technologies (Invitrogen SelectScreen); Dyrk1A, Dyrk2 and CK2α in-house or gifts

ROS = molecular target: T8, ROS (Homo sapiens, UniProt P08922); test: Selectivity panel ROS; type: biochemical; conditions: 5 µM inhibitor
T8 construct: purchased Life Technologies (Invitrogen SelectScreen); Dyrk1A, Dyrk2 and CK2α in-house or gifts
T8 sequence (P08922 28-2347): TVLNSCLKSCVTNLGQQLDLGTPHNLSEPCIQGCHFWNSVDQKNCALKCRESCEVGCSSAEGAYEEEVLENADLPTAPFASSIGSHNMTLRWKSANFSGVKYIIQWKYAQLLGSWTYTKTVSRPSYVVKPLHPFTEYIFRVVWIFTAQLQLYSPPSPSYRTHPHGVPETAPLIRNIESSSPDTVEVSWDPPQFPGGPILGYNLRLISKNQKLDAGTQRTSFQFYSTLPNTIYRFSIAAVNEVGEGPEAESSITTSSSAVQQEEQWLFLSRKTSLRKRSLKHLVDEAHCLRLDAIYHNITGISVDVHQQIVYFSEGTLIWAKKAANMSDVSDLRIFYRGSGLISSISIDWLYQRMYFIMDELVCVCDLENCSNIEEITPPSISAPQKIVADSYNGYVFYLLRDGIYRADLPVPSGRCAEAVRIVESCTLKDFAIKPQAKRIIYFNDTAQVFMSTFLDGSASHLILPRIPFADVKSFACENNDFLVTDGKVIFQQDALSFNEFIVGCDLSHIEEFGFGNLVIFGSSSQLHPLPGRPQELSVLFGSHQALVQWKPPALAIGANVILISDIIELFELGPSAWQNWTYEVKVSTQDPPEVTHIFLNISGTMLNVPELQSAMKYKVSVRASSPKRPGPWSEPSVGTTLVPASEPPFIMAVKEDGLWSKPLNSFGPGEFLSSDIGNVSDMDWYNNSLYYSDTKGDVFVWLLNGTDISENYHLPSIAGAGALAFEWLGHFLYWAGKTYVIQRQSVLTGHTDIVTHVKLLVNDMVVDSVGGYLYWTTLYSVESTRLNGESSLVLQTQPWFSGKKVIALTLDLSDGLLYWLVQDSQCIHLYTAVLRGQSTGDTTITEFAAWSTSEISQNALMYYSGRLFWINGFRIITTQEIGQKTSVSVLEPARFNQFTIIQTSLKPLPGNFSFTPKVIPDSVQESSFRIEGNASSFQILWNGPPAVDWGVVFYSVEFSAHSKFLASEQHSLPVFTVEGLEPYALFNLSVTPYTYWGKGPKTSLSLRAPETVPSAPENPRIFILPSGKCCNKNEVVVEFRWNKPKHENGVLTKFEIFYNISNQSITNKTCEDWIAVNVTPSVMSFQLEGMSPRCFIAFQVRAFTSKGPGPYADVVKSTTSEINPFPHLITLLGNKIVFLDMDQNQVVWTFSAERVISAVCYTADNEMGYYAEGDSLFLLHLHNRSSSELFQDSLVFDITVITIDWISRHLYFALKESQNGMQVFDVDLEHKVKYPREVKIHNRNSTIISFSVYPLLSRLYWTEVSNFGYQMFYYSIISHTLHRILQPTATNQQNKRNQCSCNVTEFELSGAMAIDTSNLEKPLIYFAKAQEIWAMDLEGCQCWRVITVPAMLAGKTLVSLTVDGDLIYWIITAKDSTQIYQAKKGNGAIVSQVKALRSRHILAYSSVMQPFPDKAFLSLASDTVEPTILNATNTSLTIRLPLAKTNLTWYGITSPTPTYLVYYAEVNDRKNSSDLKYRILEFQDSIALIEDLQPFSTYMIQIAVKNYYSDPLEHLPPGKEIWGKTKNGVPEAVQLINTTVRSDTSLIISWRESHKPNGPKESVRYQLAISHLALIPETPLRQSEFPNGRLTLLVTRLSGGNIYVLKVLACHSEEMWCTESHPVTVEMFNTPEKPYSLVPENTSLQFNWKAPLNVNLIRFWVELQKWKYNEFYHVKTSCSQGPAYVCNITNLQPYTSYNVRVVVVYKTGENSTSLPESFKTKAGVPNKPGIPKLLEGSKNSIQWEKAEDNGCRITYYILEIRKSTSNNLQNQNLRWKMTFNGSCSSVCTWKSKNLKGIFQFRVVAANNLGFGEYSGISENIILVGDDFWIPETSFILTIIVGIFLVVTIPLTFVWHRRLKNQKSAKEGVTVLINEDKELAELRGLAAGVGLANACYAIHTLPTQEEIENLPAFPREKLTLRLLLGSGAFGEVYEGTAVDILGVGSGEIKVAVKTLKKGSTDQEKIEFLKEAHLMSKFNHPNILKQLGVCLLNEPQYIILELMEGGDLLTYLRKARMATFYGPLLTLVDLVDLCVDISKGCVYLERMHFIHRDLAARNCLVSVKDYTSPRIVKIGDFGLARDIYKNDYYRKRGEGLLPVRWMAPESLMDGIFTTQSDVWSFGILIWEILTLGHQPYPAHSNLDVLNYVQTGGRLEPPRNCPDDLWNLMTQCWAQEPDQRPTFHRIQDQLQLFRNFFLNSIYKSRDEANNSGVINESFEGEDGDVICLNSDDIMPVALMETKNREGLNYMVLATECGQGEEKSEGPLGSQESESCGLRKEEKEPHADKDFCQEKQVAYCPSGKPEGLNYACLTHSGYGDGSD

TrkB = molecular target: T9, TrkB (Homo sapiens, UniProt Q16620); test: Selectivity panel TrkB; type: biochemical; conditions: 5 µM inhibitor
T9 construct: purchased Life Technologies (Invitrogen SelectScreen); Dyrk1A, Dyrk2 and CK2α in-house or gifts

[1] = Metabolic Stability Assay; conditions: male, Sprague-Dawley, rat, liver microsomes
Dyrk1A = molecular target: T10, Dyrk1A (Homo sapiens, UniProt Q13627); test: Dyrk1A kinase assay (32P-ATP, Woodtide); type: biochemical; conditions: for IC50: 100 µM ATP; for inhibition at 5 µM: read-out: percentage of inhibition Dyrk1A
T10 construct: encoding the catalytic domain of human Dyrk1A; thrombin cleavage site (N); made in house; host or cells: Escherichia coli BL21(DE3) with pRARE

SMILES | IC50 (Dyrk2) | inhibition at 5 µM (Dyrk2) [%] | inhibition at 5 µM (CK2α) [%] | inhibition at 5 µM (Clk3) [%] | inhibition at 5 µM (PIM1) [%] | inhibition at 5 µM (CaMK1) [%] | inhibition at 5 µM (PRKD2 (PKD2)) [%] | inhibition at 5 µM (Ck1δ) [%] | inhibition at 5 µM (EGFR) [%] | inhibition at 5 µM (ROS) [%] | inhibition at 5 µM (TrkB) [%] | melting point [°C] | CLhep predicted at 0.5 µM [1] [mL/min/kg] | half-life at 0.5 µM [1] [min] | IC50 (Clk1) [nM] | inhibition at 5 µM (Clk1; at 5 µM) [%] | IC50 (PIM1) [µM] | IC50 (Dyrk1A) | inhibition at 5 µM (Dyrk1A) [%] | further results
c1cncc(-c2cc(-c3cncs3)cs2)c1 [Compound 29, 3-[4-(1,3-thiazol-5-yl)thiophen-2-yl]pyridine] | 400 nM and 430 nM | 93 | 0 | 12 | 22 | 8 | 0 | 0 | 0 | 0 | 24 | 114 to 115 | 49 | 27 |  |  |  |  |  | inhibition at 5 µM (Clk1): 96%
Cn1cc(-c2csc(-c3cccnc3)c2)cn1 [Compound 30, 3-[4-(1-methyl-1H-pyrazol-4-yl)thiophen-2-yl]pyridine] | 200 nM and 190 nM | 100 | 9.5 | 17 | 52 | 17 | -8 | -1 | 5 | 4 | -5 | 119 to 120 | 34 | 53 | 160 | 92 | ~5 |  |  | percentage of inhibition CK2α (CK2α; at 5 µM): 10%
c1cncc(-c2csc(-c3cnco3)c2)c1 [Compound 33, 3-[5-(1,3-oxazol-5-yl)thiophen-3-yl]pyridine] | 1340 nM and 1300 nM | 77 | 0 | 5 | 51 | 12 | 0 | 0 | 0 | 2 | 23 | 86 to 87 |  |  | 420 | 88 | ~5 | 800 nM and 810 nM | 84 | 
c1cncc(-c2csc(-c3cncnc3)c2)c1 [Compound 41, 5-[4-(pyridin-3-yl)thiophen-2-yl]pyrimidine] | 3500 nM and 3400 nM | 57 | 0 | 5 | 14 | 0 | 0 | 0 | 4 | 0 | 22 | 173 to 174 |  |  | 610 | 86 |  | 900 nM and 880 nM | 85 | 
c1cncc(-c2csc(-c3cncs3)c2)c1 [Compound 48, 3-[5-(1,3-thiazol-5-yl)thiophen-3-yl]pyridine] | 40 nM | 100 | 0 | 31 | 51 | 5 | 0 | 1 | 15 | 0 | 0 | 69 to 70 | 47 | 31 | 110 | 94 | ~5 | 100 nM | 97 | Kd (Dyrk1A; calculated with Cheng-Prussoff equation, KM ATP 64 µM): 39 nM
